Experimental data: ChEMBL document CHEMBL1201862, “PubChem BioAssay data set” (2004)
Values joined by “and” are separate entries in the source; they are usually repeats but may differ in a detail not shown here. Equal values may be shown once.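 A five-concentration, 48-hour dose response in 96-well plates underlies each endpoint, interpolated linearly between surrounding concentrations. Abbreviation: GI50, concentration required for 50% inhibition of growth.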 Active and inactive are the calls of the source. Cut-off read from the data, not from the text of the source: active = GI50 up to about 1.1 µM and inactive = higher.

What was measured:
Test in all cases: NCI anticancer screen, dose series, 48 h
[1] = tested on: 786-0
[2] = tested on: A498
[3] = tested on: A549
[4] = tested on: ACHN
[5] = tested on: BT-549
[6] = tested on: CAKI-1
[7] = tested on: CCRF-CEM
[8] = tested on: COLO 205
[9] = tested on: DU-145
[10] = tested on: EKVX
[11] = tested on: HCT-116
[12] = tested on: HCT-15
[13] = tested on: HOP-62
[14] = tested on: HOP-92
[15] = tested on: HT-29
[16] = tested on: Hs-578T
[17] = tested on: IGROV-1
[18] = tested on: K562
[19] = tested on: KM12
[20] = tested on: LOX IMVI
[21] = tested on: M14
[22] = tested on: MCF7
[23] = tested on: MDA-MB-231
[24] = tested on: MDA-MB-435
[25] = tested on: MOLT-4
[26] = tested on: Malme-3M
[27] = tested on: NCI-H226
[28] = tested on: NCI-H23
[29] = tested on: NCI-H460
[30] = tested on: NCI-H522
[31] = tested on: NCI/ADR-RES
[32] = tested on: OVCAR-3
[33] = tested on: OVCAR-4
[34] = tested on: OVCAR-5
[35] = tested on: OVCAR-8
[36] = tested on: PC-3
[37] = tested on: RPMI-8226
[38] = tested on: RXF 393
[39] = tested on: SF-268
[40] = tested on: SF-295
[41] = tested on: SF-539
[42] = tested on: SK-MEL-28
[43] = tested on: SK-MEL-2
[44] = tested on: SK-MEL-5
[45] = tested on: SK-OV-3
[46] = tested on: SN12C
[47] = tested on: SNB-19
[48] = tested on: SNB-75
[49] = tested on: SR
[50] = tested on: SW-620
[51] = tested on: T47D
[52] = tested on: TK-10
[53] = tested on: U-251
[54] = tested on: UACC-257
[55] = tested on: UACC-62
[56] = tested on: UO-31
[57] = tested on: HCC 2998
[58] = tested on: HL-60
[59] = tested on: MDA-N

Measured: GI50

COc1cccc(CC(C)NCC(O)c2ccc(O)c(O)c2)c1 (configuration not stated)
inactive: [1] 37.8 µM | [2] > 100 µM | [3] 57 µM | [4] 36.6 µM | [5] 42.7 µM | [6] 35 µM | [7] 21 µM | [8] 19 µM | [9] 31.9 µM | [10] 57.3 µM | [11] 28.8 µM | [13] 34.8 µM | [14] 6.59 µM | [15] > 100 µM | [16] 57.1 µM | [17] 92 µM | [18] 94.4 µM | [19] 55.5 µM | [20] 43.3 µM | [21] 38 µM | [22] 41.8 µM | [23] 10.8 µM | [24] 44.4 µM | [25] 14 µM | [26] 43.5 µM | [27] 24.8 µM | [28] 33.7 µM | [29] 51.6 µM | [30] 34.8 µM | [31] > 100 µM | [32] 26.6 µM | [33] 18.5 µM | [34] 17.3 µM | [35] 18.7 µM | [36] 46.1 µM | [37] 39.2 µM | [38] > 100 µM | [39] 50.5 µM | [40] > 100 µM | [41] 37.2 µM | [42] 52.1 µM | [43] > 100 µM | [44] 60.3 µM | [45] 16.6 µM | [46] 25 µM | [47] 32.3 µM | [48] 19 µM | [49] 17.4 µM | [50] 33 µM | [51] 25.3 µM | [52] 25.6 µM | [53] 45.6 µM | [54] 34.1 µM | [55] 37.5 µM | [56] 39.3 µM
44.6 µM: [12]

COc1cccc(CCNC(=O)Cc2ccccc2CCO)c1
inactive: [1] > 100 µM | [2] > 100 µM | [3] > 100 µM | [4] > 100 µM | [5] > 100 µM | [6] > 100 µM | [7] > 100 µM | [8] > 100 µM | [9] > 100 µM | [10] > 100 µM | [57] > 100 µM | [11] > 100 µM | [58] > 100 µM | [13] > 100 µM | [14] > 100 µM | [15] > 100 µM | [16] > 100 µM | [17] > 100 µM | [18] > 100 µM | [19] > 100 µM | [21] > 100 µM | [22] > 100 µM | [23] > 100 µM | [24] > 100 µM | [25] > 100 µM | [27] > 100 µM | [28] > 100 µM | [29] > 100 µM | [30] > 100 µM | [31] > 100 µM | [32] > 100 µM | [33] > 100 µM | [34] > 100 µM | [35] > 100 µM | [36] > 100 µM | [37] > 10 µM | [38] > 100 µM | [39] > 100 µM | [40] > 100 µM | [41] > 100 µM | [42] > 100 µM | [43] > 100 µM | [44] > 100 µM | [45] > 100 µM | [46] > 100 µM | [47] > 100 µM | [48] > 100 µM | [49] > 100 µM | [50] > 100 µM | [51] > 100 µM | [52] > 100 µM | [53] > 100 µM | [54] > 100 µM | [55] > 100 µM | [56] > 100 µM
> 100 µM: [12]

CCO/C=N\c1c(C#N)c(-c2ccc(Cl)cc2)cn1-c1ccc(C)cc1
active: [49] 0.0272 µM
inactive: [1] > 100 µM | [2] > 100 µM | [3] > 100 µM | [4] > 100 µM | [5] > 100 µM | [6] > 100 µM | [7] > 100 µM | [8] > 100 µM | [9] > 100 µM | [10] > 100 µM | [57] > 100 µM | [11] > 100 µM | [58] > 100 µM | [13] > 100 µM | [14] > 100 µM | [15] > 100 µM | [16] 95.9 µM | [17] > 100 µM | [18] > 100 µM | [20] > 100 µM | [21] > 100 µM | [22] > 100 µM | [23] > 100 µM | [24] > 100 µM | [59] > 100 µM | [26] > 100 µM | [27] > 100 µM | [28] > 100 µM | [29] > 100 µM | [30] > 100 µM | [31] > 100 µM | [32] > 100 µM | [33] > 100 µM | [34] > 100 µM | [35] > 100 µM | [36] > 100 µM | [38] > 100 µM | [39] > 100 µM | [40] > 100 µM | [41] > 100 µM | [42] > 100 µM | [43] > 100 µM | [44] > 100 µM | [45] > 100 µM | [46] > 100 µM | [47] > 100 µM | [48] > 100 µM | [50] > 100 µM | [52] > 100 µM | [53] > 100 µM | [54] > 100 µM | [55] > 100 µM | [56] > 100 µM
> 100 µM: [12]

COc1ccc(-c2c(C(C)=O)c(-c3ccccc3)n(C3OC(COC(C)=O)C(OC(C)=O)C(OC(C)=O)C3OC(C)=O)c(=S)c2C#N)cc1O (configuration not stated)
inactive: [1] 36.5 µM and 36.9 µM | [2] > 100 µM | [3] 68.5 µM and 44.9 µM | [4] 40.8 µM and 32.9 µM | [5] 33.7 µM | [6] 62.8 µM and 49.7 µM | [9] 37.8 µM and 26.9 µM | [10] 25.9 µM and 34.6 µM | [57] 24.1 µM and 18.2 µM | [11] 21.8 µM and 36.2 µM | [58] 7.1 µM | [15] 36.9 µM | [16] 47.6 µM and 70.5 µM | [18] 47.9 µM and 49.4 µM | [19] 33.7 µM and 19.1 µM | [20] 34.6 µM and 23.2 µM | [22] 28.6 µM and 36.1 µM | [24] 39.1 µM and 32 µM | [59] 27.5 µM and 33.5 µM | [26] 18.5 µM and 16.4 µM | [28] 35.4 µM and 26 µM | [30] 17.6 µM and 10.1 µM | [31] 38.3 µM | [32] 29.4 µM and 16.8 µM | [33] 31.8 µM and 24.7 µM | [34] > 100 µM and 66.7 µM | [36] 26.4 µM and 41.4 µM | [38] 40.6 µM and 42.1 µM | [40] 64.4 µM and 36.4 µM | [44] 33.4 µM and 30.1 µM | [46] > 100 µM and 52.1 µM | [47] 71.4 µM | [50] 93.8 µM and 91.6 µM | [53] 91.8 µM and 69.5 µM | [54] 55.8 µM and 34.9 µM | [55] 38.7 µM and 19.9 µM | [56] 56.9 µM and 36.4 µM
42.3 µM and 28 µM: [12]

CCSC1=CC2(O)N(CCc3ccc(OC)c(OC)c3)C(=O)CC2(C(=O)OC)CC1=O (configuration not stated)
inactive: [1] 19.3 µM | [2] > 100 µM | [3] > 100 µM | [4] 29.9 µM | [5] 18.4 µM | [6] 70.5 µM | [7] 34 µM | [8] 77.6 µM | [9] 18.2 µM | [10] 40.1 µM | [57] 18.5 µM | [11] 17.9 µM | [58] 32.7 µM | [13] 18.2 µM | [14] 14.6 µM | [15] 18.6 µM | [17] 18.2 µM | [18] 37.9 µM | [19] 18.5 µM | [20] 19.1 µM | [21] 25.8 µM | [22] 19.7 µM | [23] 18.3 µM | [24] 21.2 µM | [59] 31.3 µM | [25] 23.8 µM | [27] > 100 µM | [28] 18.4 µM | [31] 65.9 µM | [32] 18.2 µM | [33] 35.8 µM | [34] > 100 µM | [35] 16.6 µM | [36] 18.7 µM | [37] 29.4 µM | [40] > 100 µM | [41] 26.3 µM | [42] 37.2 µM | [43] 21.1 µM | [44] 41.2 µM | [45] 86.9 µM | [46] 19.6 µM | [47] 92.9 µM | [49] 19.6 µM | [50] 25.2 µM | [51] 21 µM | [52] 19.5 µM | [53] 23.4 µM | [54] 17.9 µM | [55] 19.5 µM | [56] 18.5 µM
25.8 µM: [12]
